Where “and” joins values, the source holds several entries; their conditions need not be identical. Equal entries are not always repeated. Entries after “also recorded” stand apart in the source; their conditions may differ.
What was measured:
[1] = Solubility and characteristics of the compounds in the dosing vehicle; assay type: physicochemical; settings: vehicle DMSO
P. cynomolgi sporozoites = assay: Oral causal prophylactic assay in Rhesus monkey (compound 3 IM; 4b and 3c PO); assay type: in vivo, Plasmodium cynomolgi; settings: per monkey
Description: To test the causal prophylactic intramuscular potency of the purified isomer of compound 3 and oral potency of two carbamate derivatives of 2-guanidinylimidazolidinedione (4b and 3c) the following assay was conducted.
Fourteen rhesus monkeys were issued.
A donor monkey was inoculated intravenously with 1.3 ml, freshly-thawed frozen infected red blood cell (DA310). When the monkey developed gametocytemia, mosquito feedings were conducted on days 15 and 16 after inoculation. The donor monkey was treated with intramuscular chloroquine hydrochloride (CQ) 10 mg/kg, once a day after the second mosquito feeding and continued for 6 days.
On day 0 of the beginning of the assay, each of the 14 monkeys was inoculated intravenously with 1-ml inoculum of suspension containing about 1.0×10^6 P. cynomolgi sporozoites harvested from Anopheles dirus mosquitoes' salivary glands previously fed on the donor monkey.
All monkeys received treatment on days −1, 0 and 1. The control monkeys (Group 1) received HECT orally and the experimental animals received testing compound intramuscularly (Groups 2 and 3) or orally (Groups 4 to 7).

Plasmodium yoelii (17×) = assay: Sporozoite induced test in mouse (causal prophylactic activity); assay type: in vivo; settings: sporozoite challenged CD-1 mice; single dose 4 hours before inoculation; oral administration
Description: The causal prophylactic antimalarial activity of the new carbamate derivatives were assessed in a sporozoites challenged mouse model according to the following protocol and the results are shown in Table 4 and Table 5.
Each compound was ground with a mortar and pestle and suspended in 0.5% hydroxyethylcellulose and 0.1% Tween 80 for compounds to be administered PO and those given SC were suspended in peanut oil. Each compound is prepared at 3 different dose levels.
Compounds were administered either PO or SC to mice once 4 hours before inoculation of sporozoites.
Four-week-old male CD-1 mice, purchased from Charles River and weighing about 16 to about 17 grams were placed 5 per cage and allowed to acclimate for 4 days before being treated and then inoculated with sporozoites. They were fed food and water ad-lib and maintained at 76° F. with 12 hour light and 12 hour darkness. The cages and water bottles were changed biweekly. The mice are weighed on Days 0, 3 and 6 then biweekly when blood films were taken.
Plasmodium yoelii (17×) was used to infect mice that will be used to infect the mosquitoes.
Mice were given a single dose of test compound 4 hours before being inoculated intraperitoneally with 2.5×10^5 sporozoites of Plasmodium yoelii on Day 0. Whole body weights were taken on Day 0 and Day 6 then twice a week for 31 days. A blood film was taken on Day 5 and then twice a week for 31 days. Mice loosing greater than about 20% of their body weight were sacrificed. All mice alive on Day 31 with no parasites in a blood film were considered cured. Donor mice used to infect the mosquitoes were infected with 2.5×10^4 parasitized erythrocytes. The mosquitoes were allowed to feed on these malaria-infected mice on Day 4 of their infection when the parasitemia was low.
A compound was considered active against either the sporozoite or the EE stage if no parasites were found in the blood films taken on Day 5 or on subsequent blood films taken weekly for 31 days.
Mice alive on Day 31 with no parasites found in any blood films were considered cured.

Plasmodium falciparum = settings: cited from earlier work
P. vivax = settings: cited from earlier work

Compound | Sediment ([1]; dosage 10 mg/kg) | Solubility ([1]; dosage 10 mg/kg) | Supernatant ([1]; dosage 10 mg/kg) | Sediment ([1]; dosage 30 mg/kg) | Solubility ([1]; dosage 30 mg/kg) | Supernatant ([1]; dosage 30 mg/kg) | Day of Parasitemia (P. cynomolgi sporozoites; 10 mg/kg IM) | Result (P. cynomolgi sporozoites; 10 mg/kg IM, 10 mg/kg) | Day of Parasitemia (P. cynomolgi sporozoites; 30 mg/kg IM, 30 mg/kg) | Result (delay the parasitemia) (P. cynomolgi sporozoites; 30 mg/kg IM, 30 mg/kg) | melting point | Minimum Protective Dose Against P. yoelii (Plasmodium yoelii (17×)) | Activity against primary exoerythrocytic forms (Plasmodium falciparum) | Activity against primary exoerythrocytic forms (P. vivax)
CC(C)N1C(=O)C(=O)N=C1NC(=N)Nc1ccc(Cl)c(Cl)c1 [Compound 3, N-(3,4-dichlorophenyl)-N′-(1-isopropyl-4,5-dioxoimidazolidin-2-ylidene)guanidine] | None | Good | Yellow clear | None | Moderate | Yellow turbid | 8 days | not protected; also recorded: No activity | 15 days and 20 days | 7 days and 12 days and did not completely protect the monkeys from malaria | 230 °C and 233 °C | >160 mg/kg | – | –
CC(C)NC(=N)NC(=N)Nc1ccc(Cl)c(Cl)c1 [chlorproguanil] | – | – | – | – | – | – | – | – | – | – | – | – | highly active | highly active
